Laboratory results taken from patent US20070148666A1, “Diagnosis and Treatment of Brain Cancer” (priority 2005, published 2007).

Legend:
Assay type in all cases: cell-based, human
[1] = test system: D283 cells; assay: Colony formation assay on soft agar; details: transfected D283 cells, after 3 weeks, p<0.001
Description: Wnt inhibitors were cloned into pcDNA3.1, D283 cells transfected and plated on agar. Colonies selected in G418. Total number of colonies formed on agar was counted for three separate experiments (FIG. 8).
Colony formation assays were performed on soft agar. Cells were plated at 1.5×10^5 per well using 6-well plates and transfected with pcDNA3.1D/V5-His-TOPO/DKK1, pcDNA3.1D/N5-His-TOPO/lacZ or pcDNA3.1D/V5-His-TOPO with no insert (mock control) using Trans It-Neural transfection reagents (Mirus). The cells were selected in G418 (1 mg/ml) supplemented media at 24 hr post transfection. The cells were simultaneously harvested to confirm their expression at the mRNA level by real-time PCR. G418 resistant cells were maintained for two weeks in culture. Cells were re-suspended in media containing 0.3% agarose and were overlaid on 0.6% agarose. 0.5 ml media was added to the plates every four days and colony formation was quantified after fixation and staining with methylene blue after 3 weeks.

[2] = test system: DKK1; assay: qPCR of DKK1 expression after TSA
Description: The inventors identified genes by means of the microarray analysis. The results were verified by real time PCR (ABI) in D283 cells using Assay on demand gene expression reagents (ABI) for selected genes. Human Gus was used as the normalizer gene. Real-time PCR was performed on ABI PRISM 7900 HT detection system. Validated genes were assayed in normal brain and medulloblastoma patient samples.
(§1) RNA was isolated from cells and tissues with Triazol (Invitrogen, Carlsbad, Calif.). Real-time PCR was performed on the ABI PRISM 7900 HT detection system using Taq man reagents (Applied Biosystems, Foster City, Calif.) per the manufacturer's recommendations. Gene expression was determined with Assay on Demand gene expression reagents (Applied Biosystems, Foster City, Calif.). All assays were done in triplicate.

[3] = test system: D283 medulloblastoma cells; assay: Cell viability of D283 cells treated with TSA (MTT assay, washout experiments)
Description: The inventors tested cell viability of D283 medulloblastoma cells treated with increasing doses of the HDAC inhibitor TSA (FIG. 1A). They also tested cell viability was measured by an MTT assay.
The inventors also determined the minimum time of TSA exposure needed to induce cell death (FIG. 1B). D283 cells were exposed to TSA for various time points and the media replaced for an additional 24 h prior to assaying for cell viability.
To identify genes regulated by changes in histone H3 K9 acetylation status, the inventors first determined the optimal dose and timing for treating D283 medulloblastoma cells with TSA. The D283 cell line was chosen since it is widely used as a cell model of medulloblastoma and is well characterized. […] For microarray studies, the inventors treated D283 cells with 0.2 μM TSA for 9 hours. […] To confirm the microarray analysis, real-time quantitative PCR (qPCR) was performed on nine randomly selected genes (FIG. 12A).

[4] = test system: D283 cells; assay: Whole genome expression microarray of TSA treated D283 cells; details: 0.2 μM TSA, 9 hours, q<0.001
Description: (§2) RNA from vehicle and TSA treated D283 cells was reverse-transcribed and hybridized to the ABI 1700 Human Genome Expression Microarray containing 33,202 gene-specific 60-mer oligonucleotide probes. Data was quantile normalized and t-test was applied to each gene for statistical significance. Differential gene expression was quantified using the Storey q-value method and data visualized using Spotfire software.
(§3) The D283 cell line was cultured with either 0.2 μM TSA or DMSO for 9 hours to generate gene expression profiles in response to TSA. Total RNA was extracted from treated cells using Trizol (Invitrogen, Carlsbad, Calif.). RNA was further purified using the RNeasy kit (QIAGEN, Valencia, Calif.) per manufacturer's protocol and purity of RNA was determined by the Agilent Bioanalyzer. 2 μg of total RNA was reverse-transcribed with the Chemiluminescent RT-IVT Labeling Kit (Applied Biosystems, Foster City, Calif.) and hybridized to a 60-mer whole genome oligonucleotide microarray (Applied Biosystems, Foster City, Calif.) containing 33,202 probes representing 29,098 genes per manufacturer's protocol. A total of three microarray hybridizations, one for each biological replicate, were performed per treatment. […] Differential gene expression was quantified using Storey q-value method (Storey and Tibshirani, 2003, Proc Natl Acad Sci USA 100, 9440-9445). […]

[5] = test system: Dkk 1; assay: Expression microarray, TSA fold increase of Dkk1; details: D283 medulloblastoma cells
Excerpt: as §2
(§4) The inventors performed studies that determined that antagonists of Wnt signalling are epigenetically silenced in medulloblastoma.
as §3, with “protocol.” for “protocol. A total of three microarray hybridizations, one for each biological replicate, were performed per treatment.”

[6] = test system: WIF 1; assay: Expression microarray, TSA fold increase of WIF1; details: D283 medulloblastoma cells
Excerpt: as §2, §4
as §3, with “protocol.” for “protocol. A total of three microarray hybridizations, one for each biological replicate, were performed per treatment.”

[7] = test system: histone acetylation; assay: Western blot analysis of histone acetylation; details: D283 cells, 9 hours of TSA exposure
[8] = test system: p21; assay: qPCR of p21 mRNA after TSA; details: TSA 0.2 μM, D283, Daoy and MB 100 primary cells, n=3
Description: as §1

[9] = test system: sFRP 1; assay: Expression microarray, TSA fold increase of sFRP1; details: D283 medulloblastoma cells
Excerpt: as §2, §4
as §3, with “protocol.” for “protocol. A total of three microarray hybridizations, one for each biological replicate, were performed per treatment.”

[10] = test system: RASSF1; assay: qPCR of RASSF1 mRNA after TSA; details: TSA 0.2 μM, D283, Daoy and MB 100 primary cells, n=3
Description: as §1

[11] = test system: D283 cells; assay: FACS analysis of TUNEL-stained D283 cells (apoptosis); details: 12 hours, TUNEL FACS (DMSO 13%)
Description: FIGS. 11A-11C. Effects of TSA on D283 cells. (FIG. 11A) Dose response curves of cell viability for D283 medulloblastoma cells treated with increasing doses of the HDAC inhibitor TSA. (FIG. 11B) FACs analysis of TUNEL-stained (BD Biosciences) D283 cells treated with TSA for 12 hours. FACs dot plots of cells with DMSO (i), and cells treated with 0.02 μM and 0.2 μM TSA (ii and iii).

Question: With DKK1 as the compound, how does the “fewer neo-resistant colonies than controls” value [1] read?
Answer: Its value is 60%.

Question: For `CC(/C=C/C(=O)NO)=C\[C@@H](C)C(=O)c1ccc(N(C)C)cc1` [TSA, Trichostatin A], which DKK1 expression ([2]; D283 cells, TSA 0.2 μm, qPCR) is on record?
Answer: The DKK1 expression was “potently induces DKK1 expression”.

Question: What about the DKK1 expression ([2]; MB47, MB100, MB187 primary cells and D283, RT-PCR) of the same compound?
Answer: The DKK1 expression was “increased on TSA treatment”.

Question: What about the cell viability ([3]; 0.1 μM TSA, 24 h, MTT assay) of the same compound?
Answer: The cell viability was 50%.

Question: And the “cells committed to cell death by 24 hours” value ([3]; 0.2 μM TSA for 9 hours, washout)?
Answer: Its value is 85%.

Question: What about the cell viability ([3]; 0.2 μM TSA, 9 hours) of the same compound?
Answer: The cell viability was 100%.

Question: And the cell viability ([3]; 0.2 μm TSA, 24 h, MTT assay)?
Answer: Its cell viability is 30%.

Question: What about the surviving cells ([3]; TSA exposure between 6 and 9 h, media replaced for additional 24 h) of the same compound?
Answer: Its surviving cells is 80%.

Question: What about the “number of genes induced at least 2-fold” value [4] of the same compound?
Answer: The value was 714.

Question: What about the “TSA fold increase of Dkk1” value [5] of the same compound?
Answer: Its value is 1.4 fold.

Question: And the “TSA fold increase of WIF1” value [6]?
Answer: The value was 2.5 fold.

Question: What about the histone acetylation [7] of the same compound?
Answer: Its histone acetylation is “robust histone acetylation”.

Question: And the “p21 mRNA” value [8]?
Answer: Its value is “induction”.

Question: And the “TSA fold increase of sFRP1” value [9]?
Answer: The value was 2.9 fold.

Question: What about the “RASSF1 mRNA” value [10] of the same compound?
Answer: The value was “induction”.

Question: And the apoptotic cells ([11]; 0.02 μM TSA)?
Answer: Its apoptotic cells is 31%.

Question: What about the apoptotic cells ([11]; 0.2 μM TSA) of the same compound?
Answer: Its apoptotic cells is 79%.
